Reference: patent US20080051429A1, “USE OF 4-AMINO-PIPERIDINES FOR TREATING SLEEP DISORDERS” (priority 2006, published 2008)
Counter-ions that a name gives are not always drawn. Like-named read-outs stand apart in the source and are kept apart here.

Target: T1, 5-HT2A receptor (Homo sapiens, UniProt P28223)
T1 construct: expressed in transfected cells; host or cells: NIH3T3 cells, pSI expression vector
Assay: R-SAT functional receptor assay
Assay type: cell-based
Conditions: for Emax: 120 h
Experimental: The functional receptor assay, Receptor Selection and Amplification Technology (R-SAT), was used (with minor modifications from that previously described U.S. Pat. No. 5,707,798) to screen compounds for efficacy at the 5-HT2A receptor. Briefly, NIH3T3 cells were grown in 96 well tissue culture plates to 70-80% confluence. Cells were transfected for 12-16 hours with plasmid DNAs using superfect (Qiagen Inc.) as per manufacture's protocols. R-SAT's were generally performed with 50 ng/well of receptor and 20 ng/well of Beta-galactosidase plasmid DNA. All receptor and G-protein constructs used were in the pSI mammalian expression vector (Promega Inc) as described in U.S. Pat. No. 5,707,798. The 5HT2A receptor gene was amplified by nested PCR from brain cDNA using the oligodeoxynucleotides based on the published sequence (see Saltzman et. al. Biochem. Biophys. Res. Comm. 181:1469-78 (1991)). Large-scale transfections, cells were transfected for 12-16 hours, then trypsinized and frozen in DMSO. Frozen cells were later thawed, plated at 10,000-40,000 cells per well of a 96 well plate that contained drug. With both methods, cells were then grown in a humidified atmosphere with 5% ambient CO2 for five days. Media was then removed from the plates and marker gene activity was measured by the addition of the beta-galactosidase substrate ONPG (in PBS with 5% NP-40). The resulting colorimetric reaction was measured in a spectrophotometric plate reader (Titertek Inc.)at […]. All data were analyzed using the computer program XLFit (IDBSm). Efficacy is the percent maximal repression compared to repression by a control compound (ritanserin in the case of 5HT2A). pIC50 is the negative of the log(IC50), where IC50 is the calculated concentration in Molar that produces 50% maximal repression.
Briefly, the 5-HT2A receptor, and the alpha subunit of the guanine nucleotide binding protein Gq were transiently transfected into NIH3T3 cells and assayed using the functional receptor assay, Receptor Selection and Amplification Technology (R-SAT) essentially as disclosed in U.S. Pat. No. 5,707,798. Each compound was screened at seven serially diluted concentrations in triplicate. Data were analyzed using least squares fit analysis with GraphPad Prism (San Diego, Calif.), and are reported normalized to percent response.
R-SAT assays (as described in Example 42) were carried out with cells transfected with receptors (listed below) to determine the receptor selectivity profile for compound 26HCH16D. 5HT2A inverse agonist data (IC50 nM; % efficacy) were derived from detailed dose response curves (7 points in triplicate).
(§1) The functional receptor assay, Receptor Selection and Amplification Technology (R-SAT), was used (with minor modifications from that previously described U.S. Pat. No. 5,707,798) to screen compounds for efficacy at the 5-HT2A receptor. The RSAT assay was conducted as described herein.
as §1, with “5,707,798, which is incorporated herein by reference in its entirety)” for “5,707,798)”

[1] = compared to ritanserin, read-out: 5HT2A % inhibition
[2] = Table 6, read-out: 5HT2A pIC50 (converted)
[3] = read-out: Percent Efficacy, compared to ritanserin
[4] = Table 3, read-out: pIC50 (converted)

T1 sequence (P28223 whole entry): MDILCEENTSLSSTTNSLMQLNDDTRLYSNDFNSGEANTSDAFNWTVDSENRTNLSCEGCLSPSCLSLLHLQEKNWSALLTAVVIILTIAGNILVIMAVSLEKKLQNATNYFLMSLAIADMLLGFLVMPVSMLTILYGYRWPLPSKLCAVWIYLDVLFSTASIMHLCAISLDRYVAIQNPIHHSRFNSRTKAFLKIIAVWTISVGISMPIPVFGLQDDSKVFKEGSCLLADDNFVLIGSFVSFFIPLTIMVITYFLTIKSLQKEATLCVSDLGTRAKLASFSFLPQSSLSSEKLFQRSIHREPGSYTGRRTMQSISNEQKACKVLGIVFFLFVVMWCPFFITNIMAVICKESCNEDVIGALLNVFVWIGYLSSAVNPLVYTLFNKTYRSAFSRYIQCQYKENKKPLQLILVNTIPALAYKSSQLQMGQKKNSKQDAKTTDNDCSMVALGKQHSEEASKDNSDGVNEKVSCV

SMILES	Emax [3] [%]	IC50 [4] [nM]	other results
CC(C)COc1ccc(CN2C(=O)OC3(CCN(CC4CC4)CC3)C2Cc2ccc(F)cc2)cc1 (centres unmarked) [Example 38-PH16-HCl, 8-Cyclopropylmethyl-4-(4-fluorobenzyl)-3-(4-isobutoxybenzyl)-1-oxa-3,8-diaza-spiro[4.5]decan-2-one, hydrochloride]			Emax [1]: 95%; IC50 [2]: 7.94 nM
CC(C)COc1ccc(CN2C(=O)OC3(CCN(CCN4CCNC4=O)CC3)C2Cc2ccc(F)cc2)cc1 (centres unmarked) [Example 38-PH17-HCl, 4-(4-Fluorobenzyl)-3-(4-isobutoxybenzyl)-8-[2-(2-oxo-imidazolidin-1-yl)-ethyl]-1-oxa-3,8-diaza-spiro[4.5]decan-2-one, hydrochloride]			Emax [1]: 84%; IC50 [2]: 1.58 nM
CCN1CCC2(CC1)OC(=O)N(Cc1ccc(OCC(C)C)cc1)C2Cc1ccc(F)cc1 (centres unmarked) [Example 38-PH20, 4-(4-Fluorobenzyl)-3-(4-isobutoxybenzyl)-8-ethyl-1-oxa-3,8-diaza-spiro[4.5]decan-2-one, hydrochloride]			Emax [1]: 100%; IC50 [2]: 0.501 nM
COc1ccc(CC(=O)N(Cc2ccc(C)cc2)C2CCN(CC3CCCCC3)CC2)cc1 [Example 42ELH45, 2-(4-Methoxyphenyl)-N-(4-methylbenzyl)-N-(1-cyclohexylmethylpiperidin-4-yl)acetamide]			Percent Efficacy: 108%
COc1ccc(CC(=O)N(Cc2ccc(C)cc2)C2CCN(C3CCCC3)CC2)cc1 [Example 42ELH75, 2-(4-Methoxyphenyl)-N-(4-methylbenzyl)-N-(1-cyclopentylpiperidin-4-yl)acetamide]	109	5.01	
COc1ccc(CC(=O)N(Cc2ccc(C)cc2)C2CCN(C(C)C)CC2)cc1 [Example 42ELH79, 2-(4-Methoxyphenyl)-N-(4-methylbenzyl)-N-(1-isopropylpiperidin-4-yl)acetamide]	110	3.16	
CCN1CCC(N(Cc2ccc(C)cc2)C(=O)Cc2ccc(OC)cc2)CC1 [Example 42ELH80, 2-(4-Methoxyphenyl)-N-(4-methylbenzyl)-N-(1-ethylpiperidin-4-yl)acetamide]	122	3.16	
CCN1CCC(N(Cc2ccc(Cl)cc2)C(=O)Cc2ccc(OC)cc2)CC1 [Example 42ELH85, 2-(4-Methoxyphenyl)-N-(4-chlorbenzyl)-N-(1-ethylpiperidin-4-yl)acetamide]			Percent Efficacy (compared to ritanserin): 118%
COc1ccc(CC(=O)N(Cc2ccc(Cl)cc2)C2CCN(C3CCCC3)CC2)cc1 [Example 42ELH91, 2-(4-Methoxyphenyl)-N-(4-chlorbenzyl)-N-(1-cyclopentylpiperidin-4-yl)acetamide]			Percent Efficacy (compared to ritanserin): 108%
Cc1ccc(CN(C(=O)Cc2ccc(Cl)cc2)C2CCN(C(C)C)CC2)cc1 [Example 47AKU-7, 2-(4-Chlorophenyl)-N-(4-methylbenzyl)-N-(1-isopropylpiperidin-4-yl)-acetamide]	120	7.94	
Cc1ccc(CN(C(=O)Cc2ccc(Cl)cc2)C2CCN(C)CC2)cc1 [Example 47AKU-8, 2-(4-Chlorophenyl)-N-(4-methylbenzyl)-N-(1-methylpiperidin-4-yl)-acetamide]	113	7.94	
CCN1CCC(N(Cc2ccc(C)cc2)C(=O)Cc2ccc(Cl)cc2)CC1 [Example 47AKU-12, 2-(4-Chlorophenyl)-N-(4-methylbenzyl)-N-(1-ethylpiperidin-4-yl)acetamide]	112	7.94	
COc1ccc(CC(=O)N(Cc2ccc(C)cc2)C2CCN(C3CCC3)CC2)cc1 [Example 47AKU-20, 2-(4-Methoxyphenyl)-N-(4-methylbenzyl)-N-(1-cyclobutylpiperidin-4-yl)acetamide]	120	10	
COc1ccc(CC(=O)N(Cc2ccc(C)cc2)C2CC3CCC(C2)N3C)cc1 (centres unmarked) [Example 47AKU-21, 2-(4-Methoxyphenyl)-N-(4-methylbenzyl)-N-(8-methyl-8-aza-bicyclo[3.2.1]oct-3-yl)-acetamide]			Emax (read-out: Percent Efficacy): 117%; IC50 (pIC50, Table 3): 12.6 nM
Cc1ccc(CN(C(=O)NCc2ccccc2)C2CCN(C)CC2)cc1 [Example 47AKU-22, N-(4-Methylbenzyl)-N-(1-methylpiperidin-4-yl)-N′-benzyl-carbamide]	117	12.6	
COc1ccc(CNC(=O)N(Cc2ccc(C)cc2)C2CCN(C)CC2)cc1 [Example 47AKU-44, N-(4-Methylbenzyl)-N-(1-methylpiperidin-4-yl)-N′-(4-methoxybenzyl)-carbamide]	112	3.16	
COc1ccc(CC(=O)N(Cc2ccc(C)cc2)C2CCN(CCCn3c(=O)[nH]c4ccccc43)CC2)cc1 [Example 50ELH89, 2-(4-Methoxyphenyl)-N-(4-methylbenzyl)-N-(1-(3-(1,3-dihydro-2H-benzimidazol-2-one-1-yl)propyl)piperidine-4-yl)acetamide]			Emax (read-out: Percent Efficacy): 111%; IC50 (pIC50, Table 3): 0.2 nM
Cc1ccc(CC(=O)N(Cc2ccc(C)cc2)C2CCN(C)CC2)cc1 [Example 57MBT62B, N-((4-methylphenyl)methyl)-N-(1-methylpiperidin-4-yl)-2-(4-methylphenyl)ace tamide hydrochloride]		12.6	Emax (read-out: Percent Efficacy): 119%
Cc1ccc(CN(C(=O)Cc2ccc(Br)cc2)C2CCN(C)CC2)cc1 [Example 57MBT70-1D, N-((4-methylphenyl)methyl)-N-(1-methylpiperidin-4-yl)-2-(4-bromophenyl)acetamide hydrochloride]		12.6	Emax (read-out: Percent Efficacy): 120%
Cc1ccc(CN(C(=O)Cc2ccc(I)cc2)C2CCN(C)CC2)cc1 [Example 57MBT70-2D, N-((4-methylphenyl)methyl)-N-(1-methylpiperidin-4-yl)-2-(4-iodophenyl)acetamide hydrochloride]		6.31	Emax (read-out: Percent Efficacy): 105%

Continued, in another order:

Emax [3] [%]	IC50 [4] [nM]	SMILES	other results
129	15.8	COc1ccc(CC(=O)N(Cc2ccc(F)cc2)C2CCN(C)CC2)cc1 [Example 50ELH8, 2-(4-Methoxyphenyl)-N-(4-fluorobenzyl)-N-(1-methylpiperidin-4-yl)acetamide]	
92	12.6	COc1ccc(CC(=O)N(CCCc2ccccc2)C2CCN(C)CC2)cc1 [Example 50ELH65, 2-(4-Methoxyphenyl)-N-(3-phenyl-1-propyl)-N-(1-methylpiperidin-4-yl)acetamide]	
96	3.98	COc1ccc(CC(=O)N(CCc2ccc(C)cc2)C2CCN(C)CC2)cc1 [Example 50ELH68, 2-(4-Methoxyphenyl)-N-[2-(4-methylphenyl)ethyl)-N-(1-methylpiperidin-4-yl)acetamide]	
106	2	COc1ccc(CC(=O)N(CCc2ccc(F)cc2)C2CCN(C)CC2)cc1 [Example 50ELH93A, 2-(4-Methoxyphenyl)-N-(2-4-(fluorophenyl)ethyl)-N-(1-methylpiperidin-4-yl)acetamide]	
72	7.94	COc1ccc(CC(=O)N(CCc2cccc(Cl)c2)C2CCN(C)CC2)cc1 [Example 50ELH93E, 2-(4-Methoxyphenyl)-N-[2-(3-chlorophenyl)ethyl]-N-(1-methylpiperidin-4-yl)acetamide]	
119	10	COc1ccc(CCN(C(=O)Cc2ccc(OC)cc2)C2CCN(C)CC2)cc1 [Example 50ELH95B, 2-(4-Methoxyphenyl)-N-[2-(4-methoxyphenyl)ethyl]-N-(1-methylpiperidin-4-yl)acetamide]	
75	20	COc1ccc(CC(=O)N(Cc2ccc(C)cc2)C2CCN(C)CC2)cc1O [Example 57MBT12B, N-((4-methylphenyl)methyl)-N-(1-methylpiperidin-4-yl)-2-(3-hydroxy-4-methoxyphenyl)acetamide]	
95	12.6	COc1ccc(CC(=O)N(Cc2ccc(C)c(O)c2)C2CCN(C)CC2)cc1 [Example 57MBT54B, N-((3-hydroxy-4-methylphenyl)methyl)-N-(1-methylpiperidin-4-yl)-2-(4-methoxyphenyl)acetamide]	
